The record followed here is EP1099690A1, “MONOCYCLIC $g(b)-LACTAM COMPOUNDS AND CHYMASE INHIBITORS CONTAINING THE SAME” (SHIONOGI & CO., LTD., priority 1998, dated 2000).

The target of this assay is T1, human chymase (Homo sapiens, UniProt P23946).
T1 sequence (P23946 22-247): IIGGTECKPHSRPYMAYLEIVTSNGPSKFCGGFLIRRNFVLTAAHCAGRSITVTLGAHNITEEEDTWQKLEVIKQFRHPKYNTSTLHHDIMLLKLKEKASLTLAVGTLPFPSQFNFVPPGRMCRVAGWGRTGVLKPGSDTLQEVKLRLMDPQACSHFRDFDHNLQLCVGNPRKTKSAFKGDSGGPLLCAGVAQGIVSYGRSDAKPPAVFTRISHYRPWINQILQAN
The assay can be described thus: Chymase inhibitory activity (Suc-Ala-Ala-Pro-Phe-pNA substrate, absorption 405 nm). It counts as biochemical. Particulars: purified human chymase, 30 minutes at 37 °C preincubation, substrate 0.5 mM. Here is the method: Compound (I) was dissolved in dimethylsulfoxide (DMSO) at 10^-2 M. Concentration of DMSO for activity measurement was 1 %.
Compound (I) dissolved in DMSO and purified human chymase (Takai et al., Clinica Chimica Acta 265, 1997, 13-20) were added to a buffer (0.1M Tris-HCl, 1.8M NaCl pH8.0). After the mixture was treated for 30 minutes at 37 °C, Suc-Ala-Ala-Pro-Phe-pNA (BACHEM Feinchemikalien AG) was added at 0.5 mM as a substrate and the mixture was enzymatically reacted at 37 °C.
After the reaction, the absorption intensity (405 nm) of the solution was measured to calculate the inhibitory rate.

With `CC(=O)O[C@H]1[C@H](Cc2ccccc2)C(=O)N1C(=O)NC(C)c1ccccc1` (stereo partly shown) [Compound I-36], the 50% inhibitory concentration (IC50) (usually the point on the concentration scale where inhibition reaches its midpoint) is 4.2 nM.
Then `C[C@@H](NC(=O)N1C(=O)[C@@H](Cc2ccccc2)[C@@H]1Oc1ccc(C(=O)N(C)CCN(C)C)cc1)c1ccccc1` [Compound I-38], with 2.2 nM.
For `C[C@@H](NC(=O)N1C(=O)[C@@H](Cc2ccccc2)[C@@H]1Oc1ccc(C(=O)N2CCC[C@@H]2C)cc1)c1ccccc1` [Compound I-41] the value was 1.9 nM.
Then `C[C@@H](NC(=O)N1C(=O)[C@@H](Cc2ccccc2)[C@@H]1Oc1ccc(C(=O)N2CCOCC2)cc1)c1ccccc1` [Compound I-43], with 1.08 nM; and `C=CCNC(=O)c1ccc(O[C@H]2[C@H](Cc3ccccc3)C(=O)N2C(=O)N[C@H](C)c2ccccc2)cc1` [Compound I-44], with 3.8 nM; and `C[C@@H](NC(=O)N1C(=O)[C@@H](Cc2ccccc2)[C@@H]1Oc1ccc(C(=O)NCc2ccccc2)cc1)c1ccccc1` [Compound I-45], with 20 nM.
`C[C@@H](NC(=O)N1C(=O)[C@@H](Cc2ccccc2)[C@@H]1Oc1ccc(C(=O)Nc2ccccc2)cc1)c1ccccc1` [Compound I-46] had an IC50 of 31 nM.
The molecule `C[C@@H](NC(=O)N1C(=O)[C@@H](Cc2ccccc2)[C@@H]1Oc1ccc(C(=O)OCCN(C)C)cc1)c1ccccc1` [Compound I-47] yielded a 50% inhibitory concentration (IC50) of 3 nM.
For `C[C@@H](NC(=O)N1C(=O)[C@@H](Cc2ccccc2)[C@@H]1Oc1ccc(CC(=O)O)cc1)c1ccccc1` [Compound I-49] the value was 4.3 nM; for `C[C@@H](NC(=O)N1C(=O)[C@@H](Cc2ccccc2)[C@@H]1Oc1ccc(CC(=O)N2CCN(C)CC2)cc1)c1ccccc1` [Compound I-50], 1.13 nM.
Turning to `C[C@@H](NC(=O)N1C(=O)[C@@H](Cc2ccccc2)[C@@H]1Oc1ccc(CC(=O)OCCN(C)C)cc1)c1ccccc1` [Compound I-51], inhibition was half-maximal at 30 nM (IC50).
For `C[C@@H](NC(=O)N1C(=O)[C@@H](Cc2ccccc2)[C@@H]1Oc1ccc(/C=C/C(=O)O)cc1)c1ccccc1` [Compound I-52] the value was 5.2 nM; for `C[C@@H](NC(=O)N1C(=O)[C@@H](Cc2ccccc2)[C@@H]1Oc1ccc(/C=C/C(=O)N2CCN(C)CC2)cc1)c1ccccc1` [Compound I-54], 3.5 nM; for `C[C@@H](NC(=O)N1C(=O)[C@@H](Cc2ccccc2)[C@@H]1Oc1cccc(C(=O)O)c1)c1ccccc1` [Compound I-55], 17 nM.
For `C[C@@H](NC(=O)N1C(=O)[C@@H](Cc2ccccc2)[C@@H]1Oc1cccc(C(=O)N2CCN(C)CC2)c1)c1ccccc1` [Compound I-56] the value was 2.95 nM; for `C[C@@H](NC(=O)N1C(=O)[C@@H](Cc2ccccc2)[C@@H]1Sc1ccc(C(=O)O)cc1)c1ccccc1` [Compound I-57], 24 nM.
For `C[C@@H](NC(=O)N1C(=O)[C@@H](Cc2ccccc2)[C@@H]1Sc1ccc(C(=O)N2CCN(C)CC2)cc1)c1ccccc1` [Compound I-58] the value was 5.7 nM; for `C[C@@H](NC(=O)N1C(=O)[C@@H](Cc2ccccc2)[C@H]1Oc1ccc(C(=O)N2CCOCC2)cc1)c1ccccc1` [Compound I-67], 0.18 nM.
Consider `C[C@@H](NC(=O)N1C(=O)[C@@H](Cc2ccccc2)[C@H]1Oc1ccc(C(=O)NCc2ccccc2F)cc1)c1ccccc1` [Compound I-68], for which the IC50 came out at 0.68 nM.
For `C[C@@H](NC(=O)N1C(=O)[C@@H](Cc2ccccc2)[C@H]1Oc1ccc(C(=O)OCc2ccccc2)cc1)c1ccccc1` [Compound I-69] the value was 16.2 nM; for `CCN(Cc1ccccc1)C(=O)c1ccc(O[C@@H]2[C@H](Cc3ccccc3)C(=O)N2C(=O)N[C@H](C)c2ccccc2)cc1` [Compound I-70], 1.28 nM.
For `CC(OC(=O)c1ccc(O[C@@H]2[C@H](Cc3ccccc3)C(=O)N2C(=O)N[C@H](C)c2ccccc2)cc1)c1ccccc1` (stereo partly shown) [Compound I-71] the value was 19 nM; for `C[C@@H](NC(=O)N1C(=O)[C@@H](Cc2ccccc2)[C@H]1Oc1ccc(C(=O)NNc2ccccc2)cc1)c1ccccc1` [Compound I-73], 0.92 nM; for `C[C@@H](NC(=O)N1C(=O)[C@@H](Cc2ccccc2)[C@H]1Oc1ccc(C(=O)N[C@@H](Cc2ccccc2)C(=O)OCc2ccccc2)cc1)c1ccccc1` [Compound I-74], 8.6 nM.
Then `C[C@@H](NC(=O)N1C(=O)[C@@H](Cc2ccccc2)[C@H]1Oc1ccc(C(=O)OCc2ccncc2)cc1)c1ccccc1` [Compound I-75], with 1.2 nM.
`C[C@@H](NC(=O)N1C(=O)[C@@H](Cc2ccccc2)[C@H]1Oc1ccc(C(=O)N2CCN(Cc3ccc4c(c3)OCO4)CC2)cc1)c1ccccc1` [Compound I-76] displayed an IC50 of 2.4 nM.
For `C[C@@H](NC(=O)N1C(=O)[C@@H](Cc2ccccc2)[C@H]1Oc1ccc(C(=O)N[C@@H](Cc2ccccc2)C(=O)O)cc1)c1ccccc1` [Compound I-77] the value was 0.26 nM.
For `C[C@H](NC(=O)N1C(=O)[C@@H](Cc2ccccc2)[C@H]1Oc1ccc(C(=O)N2CCN(C)CC2)cc1)c1ccccc1` [Compound I-81] the value was 13 nM; for `C[C@@H](NC(=O)N1C(=O)[C@@H](Cc2ccccc2)[C@H]1Sc1ccccc1)c1ccccc1` [Compound I-85], 2.4 nM; for `C[C@@H](NC(=O)N1C(=O)[C@H](Cc2ccccc2)[C@H]1Oc1ccc(C(=O)N2CCN(C)CC2)cc1)c1ccccc1` [Compound I-87], 0.8 nM.
Then `C[C@H](NC(=O)N1C(=O)[C@H](Cc2ccccc2)[C@H]1Oc1ccc(C(=O)N2CCN(C)CC2)cc1)c1ccccc1` [Compound I-89], with 18.5 nM; and `CC(NC(=O)N1C(=O)[C@@H](Cc2ccccc2)[C@@H]1Oc1ccc(C(N)=O)cc1)c1ccccc1` (stereo partly shown) [Compound I-95], with 16 nM; and `COc1ccccc1C[C@@H]1C(=O)N(C(=O)N[C@H](C)c2ccccc2)[C@H]1Oc1ccc(C(=O)O)cc1` [Compound I-102], with 1 nM.
`COc1ccccc1C[C@@H]1C(=O)N(C(=O)N[C@H](C)c2ccccc2)[C@H]1Oc1ccc(C(=O)N2CCN(C)CC2)cc1` [Compound I-104]: half-maximal inhibition (IC50) was put at 0.19 nM. This IC50 is about 5.3-fold lower than that of the molecule before.
For `COc1ccccc1C[C@@H]1C(=O)N(C(=O)N[C@H](C)c2ccccc2)[C@H]1Oc1ccc(C(=O)OCc2ccncc2)cc1` [Compound I-105] the value was 2.8 nM; for `COc1ccccc1C[C@@H]1C(=O)N(C(=O)N[C@H](C)c2ccccc2)[C@H]1Oc1ccc(C(=O)N2CCN(c3ncccn3)CC2)cc1` [Compound I-107], 0.68 nM; for `COc1ccccc1C[C@@H]1C(=O)N(C(=O)N[C@H](C)c2ccccc2)[C@H]1Oc1ccc(C(=O)N2CCN(C3CCCCC3)CC2)cc1` [Compound I-108], 0.48 nM.
Then `COc1ccccc1C[C@@H]1C(=O)N(C(=O)N[C@@H](C)c2ccccc2)[C@H]1Oc1ccc(C(=O)N2CCN(C)CC2)cc1` [Compound I-111], with 11 nM; and `CC[C@@H](NC(=O)N1C(=O)[C@@H](Cc2ccccc2OC)[C@@H]1Oc1ccc(C(=O)O)cc1)c1ccccc1` [Compound I-113], with 0.5 nM; and `CC[C@H](NC(=O)N1C(=O)[C@@H](Cc2ccccc2OC)[C@@H]1Oc1ccc(C(=O)O)cc1)c1ccccc1` [Compound I-115], with 18 nM.
Take `CCCC(NC(=O)N1C(=O)[C@@H](Cc2ccccc2OC)[C@@H]1Oc1ccc(C(=O)N2CCC(N3CCCCC3)CC2)cc1)c1ccc2c(c1)OCO2` (stereo partly shown) [Compound I-121]: the midpoint of inhibition, the IC50, lay at 0.29 nM.
The molecule `COc1ccccc1C[C@@H]1C(=O)N(C(=O)NC2(c3ccccc3)CC2)[C@H]1Oc1ccc(C(=O)O)cc1` [Compound I-125] displayed an IC50 of 19 nM.
For `COc1ccccc1C[C@@H]1C(=O)N(C(=O)NC(c2ccccc2)c2ccccc2)[C@H]1Oc1ccc(C(=O)O)cc1` [Compound I-126] the value was 2.95 nM.
`COc1ccccc1C[C@@H]1C(=O)N(C(=O)N[C@H](C)c2ccccc2)[C@@H]1Oc1ccc(C(=O)N2CCN(C)CC2)cc1` [Compound I-129]: the IC50 was 1.02 nM.
For `COc1ccccc1C[C@@H]1C(=O)N(C(=O)N[C@@H](C)c2ccccc2)[C@@H]1Oc1ccc(C(=O)O)cc1` [Compound I-130] the value was 1.18 nM.
For `COc1ccccc1C[C@@H]1C(=O)N(C(=O)N[C@@H](C)c2ccccc2)[C@@H]1Oc1ccc(C(=O)N2CCN(C)CC2)cc1` [Compound I-132] the value was 0.25 nM; for `COc1ccccc1C[C@@H]1C(=O)N(C(=O)N[C@@H](C)c2ccccc2)[C@@H]1Oc1ccc(C(=O)N2CCN(C)CC2)cc1` [Compound I-134], 0.1 nM.
For `CCOc1ccccc1C[C@@H]1C(=O)N(C(=O)N[C@H](CC)c2ccccc2)[C@H]1Oc1ccc(C(=O)O)cc1` [Compound I-135] the value was 2.1 nM; for `CCOc1ccccc1C[C@@H]1C(=O)N(C(=O)N[C@H](CC)c2ccccc2)[C@H]1Oc1ccc(C(=O)N2CCN(C3CCCCC3)CC2)cc1` [Compound I-137], 3.4 nM.
Regarding `CCOc1ccccc1C[C@@H]1C(=O)N(C(=O)NC(c2ccccc2)c2ccccc2)[C@H]1Oc1ccc(C(=O)N2CCN(C3CCCCC3)CC2)cc1` [Compound I-145], the IC50 is 10.8 nM.
Turning to `CCOc1ccccc1C[C@@H]1C(=O)N(C(=O)NC(c2ccccc2)c2ccccc2)[C@H]1Oc1ccc(C(=O)N2CCOCC2)cc1` [Compound I-148], the IC50 stood at 0.55 nM.
For `CCOc1ccccc1C[C@@H]1C(=O)N(C(=O)NC(c2ccccc2)c2ccccc2)[C@H]1Oc1ccc(C(=O)OCCN2CCOCC2)cc1` [Compound I-150] the value was 5.4 nM.
